The values below come from ChEMBL document CHEMBL3988442, “University of Dundee, Small-Polar-MMV Screening Library” (2021).

Assay [1] is described as follows: microbe, parasite or virus in culture. To be noted: Mycobacterium tuberculosis, 96 h, read-out: pIC50 (converted).
A short description of assay [2]: microbe, parasite or virus in culture. The note with it: Mycobacterium tuberculosis, 72 h, read-out: pIC50 (converted).

With `Cc1cccc(C)c1NC(=O)CC(CN1CCN(C)CC1)C(=O)O` (centres undefined), the values for the IC50 in assay [1] and in assay [2] were > 50.1 µM and 32.8 µM, respectively.
For `O=C(NCCc1c[nH]c2ccc(F)cc12)C1(n2cnnn2)CCCCC1` the same measures were 28 µM and 46.3 µM.
Take `CCCN(CCn1c(=O)oc2ccccc21)CC1CC1`: the IC50 in assay [1] and in assay [2] was > 50.1 µM throughout.
Take `N#CCCSc1nnc(Cc2ccccc2F)o1`: the IC50 in assay [1] and in assay [2] was > 50.1 µM in each case.
For the compound `CCc1cc2c(N3CCCC(c4ccn[nH]4)C3)ncnc2s1` (centres undefined), the IC50 was 12.6 µM in assay [1] and 9.09 µM in assay [2].
For `CCOCCSc1nnc(Cc2ccccc2F)o1` the same measures were 27.5 µM and 33.5 µM.
Regarding `CCc1nc(CN2CCCN(Cc3noc(C4CC4)n3)CC2)cs1`, the IC50 in assay [1] and in assay [2] was > 50.1 µM throughout.
Regarding `COCc1ccc(CNc2cnn(C(C)(C)C)c(=O)c2Cl)cc1`, the figures for the IC50 in assay [1] and in assay [2] were 15.3 µM and > 50.1 µM, respectively.
Take `COc1ccc(-n2cc(CNC(=O)c3ccccn3)nn2)cc1`: the IC50 in assay [1] and in assay [2] was > 50.1 µM in each case.
For the compound `Cc1cnn(C2CN(c3ccccc3S(=O)(=O)C(F)(F)F)C2)c1`, the values for the IC50 in assay [1] and in assay [2] were 29.4 µM and 10.2 µM, respectively.
In the case of `CC(C)c1nc(CSc2nnc(-c3cccs3)n2CC(N)=O)no1`, the values for the IC50 in assay [1] and in assay [2] were > 50.1 µM and 30.9 µM, respectively.
For `CC(C)c1nnc(CN2CC(n3cccn3)Cc3ccccc32)o1` (centres undefined) the same measures were > 50.1 µM and > 50.1 µM.
Consider `Cc1ccc(-c2cc(CS(=O)(=O)NC3CCCNC3=O)on2)cc1` (centres undefined), for which the IC50 in assay [1] and in assay [2] was > 50.1 µM throughout.
Regarding `CCOCCNC(=O)Nc1ccc(OCc2noc(C3CC3)n2)cc1`, the IC50 in assay [1] and in assay [2] was > 50.1 µM in each case.
As to `CCc1noc(CSc2n[nH]c(-c3ccccn3)n2)n1`, the IC50 in assay [1] is 25.1 µM; in assay [2] it was > 50.1 µM.
As for `CC(C)c1csc(C(=O)N(C)c2ccc(Br)cn2)n1`, the IC50 in assay [1] is 25.3 µM; in assay [2], 21.7 µM.
In the case of `CCCC(C)N(C)Cc1nnc(-c2ccc(Br)s2)o1` (centres undefined), the IC50 is 29.4 µM in assay [1] and 1.85 µM in assay [2].
For `CCOCCN(C)C(c1cccnc1)c1ccc(F)cc1F` (centres undefined) the same measures were > 50.1 µM and > 50.1 µM.
For `CN(C)c1nc(N)nc(CN2CCCC(c3ccccc3)CC2)n1` (centres undefined), the IC50 in assay [1] and in assay [2] was > 50.1 µM each time.
Turning to `Cc1cc(NCCC(=O)NC(C)C)nc(-c2ccncc2)n1`, the IC50 in assay [1] and in assay [2] was > 50.1 µM in each case.
`CC(C)CC(C)N(C)Cc1nnc(-c2ccco2)o1` (centres undefined): the IC50 in assay [1] is 14.9 µM; in assay [2], 11.7 µM.
The like results for `COCc1cccc(C(=O)N2CCCC2)c1` were, in that order, > 50.1 µM and 16.3 µM.
On to `CCCC(C)N(C)Cc1nnc(-c2ccco2)o1` (centres undefined), for which the IC50 in assay [1] is 29.5 µM; in assay [2] it was 5.32 µM.
In the case of `CC(C)C(C)N(C)Cc1nnc(-c2ccco2)o1` (centres undefined), the figures for the IC50 in assay [1] and in assay [2] were > 50.1 µM and 1.38 µM, respectively.
For `CN(C)c1cc(C(=O)Nc2ccccc2C(=O)NC(C)(C)C)ccn1` the same measures were > 50.1 µM and > 50.1 µM.
Take `CC(C)CN(Cc1nnc(-c2ccco2)o1)CC(C)C`: the IC50 was > 50.1 µM in assay [1] and 4.4 µM in assay [2].
For the compound `CN(CCc1ccccn1)Cc1nccn1Cc1ccccc1`, the figures for the IC50 in assay [1] and in assay [2] were > 50.1 µM and 43.5 µM, respectively.
`CC(C)(C)n1cc(NC(=O)C2CN(Cc3ccccc3)CCO2)cn1` (centres undefined): the IC50 in assay [1] and in assay [2] was > 50.1 µM each time.
`COc1ccc(CNC(C)c2ccc(Cl)c(Cl)c2)c(OC)c1OC` (centres undefined): the IC50 in assay [1] was > 50.1 µM; in assay [2] it was 45.1 µM.
The like results for `COc1c(C)cnc(CSc2nnc(N)s2)c1C` were, in that order, > 50.1 µM and > 50.1 µM.
The like results for `O=C1CCCN1Cc1nnc(SCc2ccc3c(c2)CCC3)o1` were, in that order, 46.5 µM and 22 µM.
For `Cc1ccc(CNc2ccccc2-n2ccc(C)n2)nc1` the same measures were 24.5 µM and > 50.1 µM.
